Measurements published in the NIST ThermoML archive (doi:10.1016/j.fluid.2019.112263).
± gives the expanded uncertainty stated by the source.

Experiment: wn = mass fraction of the nth substance listed
Settings: 100 kPa, Liquid, transient hot wire

`CCCCCCCCCC(=O)OC` [methyl decanoate] + CCCCO showed a thermal conductivity (287.9 K, w1 = 0.2001) of 0.1497 ± 0.006 W/m/K, a thermal conductivity (287.95 K, w1 = 0.8003) of 0.146 ± 0.0059 W/m/K and a thermal conductivity (287.98 K, w1 = 0.599) of 0.1468 ± 0.0059 W/m/K. The thermal conductivity (288.35 K, w1 = 0.4002) was 0.1476 ± 0.0059 W/m/K, the thermal conductivity (297.66 K, w1 = 0.4002) was 0.1458 ± 0.0059 W/m/K and the thermal conductivity (297.69 K, w1 = 0.2001) was 0.1473 ± 0.0059 W/m/K. The thermal conductivity (297.81 K, w1 = 0.8003) was 0.1436 ± 0.0058 W/m/K, the thermal conductivity (298 K, w1 = 0.599) was 0.1441 ± 0.0058 W/m/K and the thermal conductivity (307.7 K, w1 = 0.2001) was 0.145 ± 0.0058 W/m/K. The thermal conductivity (307.74 K, w1 = 0.4002) was 0.1436 ± 0.0058 W/m/K, the thermal conductivity (307.81 K, w1 = 0.599) was 0.1427 ± 0.0057 W/m/K and the thermal conductivity (307.86 K, w1 = 0.8003) was 0.1412 ± 0.0057 W/m/K. The thermal conductivity (317.55 K, w1 = 0.2001) was 0.1431 ± 0.0058 W/m/K, the thermal conductivity (317.7 K, w1 = 0.8003) was 0.1395 ± 0.0056 W/m/K and the thermal conductivity (317.74 K, w1 = 0.4002) was 0.1418 ± 0.0057 W/m/K. For the same molecule, the thermal conductivity (317.81 K, w1 = 0.599) was 0.1403 ± 0.0056 W/m/K, the thermal conductivity (327.62 K, w1 = 0.2001) was 0.1398 ± 0.0056 W/m/K and the thermal conductivity (327.73 K, w1 = 0.4002) was 0.1388 ± 0.0056 W/m/K. It also gave a thermal conductivity (327.78 K, w1 = 0.599) of 0.1382 ± 0.0056 W/m/K, a thermal conductivity (327.78 K, w1 = 0.8003) of 0.137 ± 0.0055 W/m/K and a thermal conductivity (337.59 K, w1 = 0.2001) of 0.1379 ± 0.0055 W/m/K. For the same molecule, the thermal conductivity (337.59 K, w1 = 0.4002) was 0.1372 ± 0.0055 W/m/K, the thermal conductivity (337.66 K, w1 = 0.599) was 0.136 ± 0.0055 W/m/K and the thermal conductivity (337.78 K, w1 = 0.8003) was 0.1346 ± 0.0054 W/m/K. The thermal conductivity (347.49 K, w1 = 0.2001) was 0.1363 ± 0.0055 W/m/K, the thermal conductivity (347.58 K, w1 = 0.599) was 0.1339 ± 0.0054 W/m/K and the thermal conductivity (347.73 K, w1 = 0.4002) was 0.135 ± 0.0054 W/m/K. The thermal conductivity (347.8 K, w1 = 0.8003) was 0.1318 ± 0.0053 W/m/K, the thermal conductivity (357.56 K, w1 = 0.2001) was 0.1337 ± 0.0054 W/m/K and the thermal conductivity (357.68 K, w1 = 0.4002) was 0.1325 ± 0.0053 W/m/K. It also gave a thermal conductivity (357.71 K, w1 = 0.599) of 0.1317 ± 0.0053 W/m/K and a thermal conductivity (357.76 K, w1 = 0.8003) of 0.13 ± 0.0052 W/m/K.
With `CCCCCCCCCC(=O)OC` [methyl decanoate] + CCCCCO the thermal conductivity (287.96 K, w1 = 0.1941) was 0.1495 ± 0.006 W/m/K, the thermal conductivity (287.96 K, w1 = 0.4008) was 0.1482 ± 0.006 W/m/K and the thermal conductivity (287.97 K, w1 = 0.6035) was 0.1467 ± 0.0059 W/m/K. It also gave a thermal conductivity (288 K, w1 = 0.8002) of 0.1456 ± 0.0059 W/m/K, a thermal conductivity (297.72 K, w1 = 0.1941) of 0.1477 ± 0.0059 W/m/K and a thermal conductivity (297.73 K, w1 = 0.4008) of 0.1463 ± 0.0059 W/m/K. It also gave a thermal conductivity (297.76 K, w1 = 0.6035) of 0.1453 ± 0.0058 W/m/K, a thermal conductivity (297.85 K, w1 = 0.8002) of 0.1433 ± 0.0058 W/m/K and a thermal conductivity (307.69 K, w1 = 0.8002) of 0.1414 ± 0.0057 W/m/K. It also gave a thermal conductivity (307.72 K, w1 = 0.6035) of 0.1432 ± 0.0058 W/m/K, a thermal conductivity (307.74 K, w1 = 0.4008) of 0.144 ± 0.0058 W/m/K and a thermal conductivity (307.77 K, w1 = 0.1941) of 0.1451 ± 0.0058 W/m/K. It also gave a thermal conductivity (317.73 K, w1 = 0.4008) of 0.142 ± 0.0057 W/m/K, a thermal conductivity (317.74 K, w1 = 0.8002) of 0.1396 ± 0.0056 W/m/K and a thermal conductivity (317.81 K, w1 = 0.6035) of 0.1406 ± 0.0057 W/m/K. The thermal conductivity (317.86 K, w1 = 0.1941) was 0.1433 ± 0.0058 W/m/K, the thermal conductivity (327.58 K, w1 = 0.4008) was 0.1405 ± 0.0057 W/m/K and the thermal conductivity (327.66 K, w1 = 0.6035) was 0.1386 ± 0.0056 W/m/K. The thermal conductivity (327.75 K, w1 = 0.8002) was 0.1366 ± 0.0055 W/m/K, the thermal conductivity (327.82 K, w1 = 0.1941) was 0.1408 ± 0.0057 W/m/K and the thermal conductivity (337.54 K, w1 = 0.8002) was 0.1347 ± 0.0054 W/m/K. It also gave a thermal conductivity (337.6 K, w1 = 0.1941) of 0.1391 ± 0.0056 W/m/K, a thermal conductivity (337.61 K, w1 = 0.6035) of 0.1361 ± 0.0055 W/m/K and a thermal conductivity (337.76 K, w1 = 0.4008) of 0.1373 ± 0.0055 W/m/K. The thermal conductivity (347.58 K, w1 = 0.4008) was 0.1356 ± 0.0055 W/m/K, the thermal conductivity (347.61 K, w1 = 0.8002) was 0.1315 ± 0.0053 W/m/K and the thermal conductivity (347.79 K, w1 = 0.1941) was 0.1367 ± 0.0055 W/m/K. The thermal conductivity (347.85 K, w1 = 0.6035) was 0.1336 ± 0.0054 W/m/K, the thermal conductivity (357.66 K, w1 = 0.4008) was 0.1333 ± 0.0054 W/m/K and the thermal conductivity (357.7 K, w1 = 0.6035) was 0.132 ± 0.0053 W/m/K. For the same molecule, the thermal conductivity (357.75 K, w1 = 0.8002) was 0.1299 ± 0.0052 W/m/K and the thermal conductivity (357.76 K, w1 = 0.1941) was 0.1345 ± 0.0054 W/m/K.
